Target: T1, recombinant human 11 β-HSD1 (Homo sapiens, UniProt P28845)
T1 construct: made in house; host or cells: E. coli
Experiment: 11 β-HSD1 SPA Assay (Scintillation Proximity Assay)
Format: biochemical
Summary of the method: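 Scintillation proximity read-out of cortisol formed from 40 nM [3H]cortisone by purified recombinant human enzyme (30-100 nM, E. coli) with 1 mM NADPH, pH7.4, 2 hours at room temperature; beads with cortisol antibody and glycyrrhetinic acid stop the reaction, read next day. IC50 derived from inhibition normalised to background and maximal wells.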

T1 sequence (P28845 whole entry): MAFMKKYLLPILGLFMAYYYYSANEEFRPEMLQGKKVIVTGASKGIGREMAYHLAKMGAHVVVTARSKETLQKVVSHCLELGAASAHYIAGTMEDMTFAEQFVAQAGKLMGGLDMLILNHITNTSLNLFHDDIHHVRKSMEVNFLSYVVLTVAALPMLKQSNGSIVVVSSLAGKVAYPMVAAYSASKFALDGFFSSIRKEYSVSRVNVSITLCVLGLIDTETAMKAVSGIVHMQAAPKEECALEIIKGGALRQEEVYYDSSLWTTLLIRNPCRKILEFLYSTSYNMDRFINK

**Q.** CC(C)(Oc1ccc(F)c(F)c1)C(=O)N[C@H]1C[C@H]2CC[C@@H](C1)N2c1ccc(C(=O)NCC(F)(F)F)cn1 [Example 78, 6-[3-endo-({2-[(3,4-difluorophenyl)oxy]-2-methylpropanoyl}amino)-8-azabicyclo[3.2.1]oct-8-yl]-N-(2,2,2-trifluoroethyl)pyridine-3-carboxamide] was tested. Which IC50 did it give?
**A.** The IC50 was under 0.2 µM.

**Q.** For Cc1ccc(OC(C)(C)C(=O)N[C@H]2C[C@H]3CC[C@@H](C2)N3c2ccc(S(C)(=O)=O)cn2)c(Cl)c1 [Example 212, 2-[(2-chloro-4-methylphenyl)oxy]-2-methyl-N-{8-[5-(methylsulfonyl)pyridin-2-yl]-8-azabicyclo[3.2.1]oct-3-endo-yl}propanamide], which IC50 is on record?
**A.** The IC50 was under 0.2 µM.

**Q.** With CC(C)(Oc1ccc(Cl)cc1Cl)C(=O)NC1CC2CCC(C1)N2c1ccc(C(=O)NCC(O)C(F)(F)F)cn1 (stereo not drawn) [Example 421, 6-(3-endo-{[2-(2,4-dichlorophenoxy)-2-methylpropanoyl]amino}-8-azabicyclo[3.2.1]oct-8-yl)-N-(3,3,3-trifluoro-2-hydroxypropyl)pyridine-3-carboxamide] as the molecule, how does the IC50 read?
**A.** Its IC50 is under 0.2 µM.

**Q.** CC(C)(Oc1ccc(Cl)c(C(F)(F)F)c1)C(=O)N[C@H]1C[C@H]2CC[C@@H](C1)N2c1ccc(C(=O)NCC(F)(F)F)cn1 [Example 186, 6-{3-endo-[(2-{[4-chloro-3-(trifluoromethyl)phenyl]oxy}-2-methylpropanoyl)amino]-8-azabicyclo[3.2.1]oct-8-yl}-N-(2,2,2-trifluoroethyl)pyridine-3-carboxamide] was tested. Which IC50 did it give?
**A.** Its IC50 is under 0.2 µM.

**Q.** COc1ccc(OC(C)(C)C(=O)N[C@H]2C[C@H]3CC[C@@H](C2)N3c2ccc(C(=O)NC3CC3)cn2)cc1 [Example 44, N-cyclopropyl-6-{3-endo-[(2-methyl-2-{[4-(methyloxy)phenyl]oxy}pro-panoyl)amino]-8-azabicyclo[3.2.1]oct-8-yl}pyridine-3-carboxamide] was tested. Which IC50 did it give?
**A.** The IC50 was under 0.2 µM.

**Q.** With CC(C)(Oc1ccc(Cl)cc1Cl)C(=O)N[C@H]1C[C@H]2CC[C@@H](C1)N2c1ccc(NC(=O)CC(F)(F)F)cc1Cl [Example 138, N-{3-chloro-4-[3-endo-({2-[(2,4-dichlorophenyl)oxy]-2-methylpropanoyl}amino)-8-azabicyclo[3.2.1]oct-8-yl]phenyl}-3,3,3-trifluoropropanamide] as the molecule, how does the IC50 read?
**A.** The IC50 was under 2 µM.

**Q.** Which IC50 does the source give for CC(C)(Oc1cc(Cl)c(F)cc1Cl)C(=O)N[C@H]1C[C@H]2CC[C@@H](C1)N2c1ccc(NS(C)(=O)=O)cn1 [Example 270, 2-[(2,5-dichloro-4-fluorophenyl)oxy]-2-methyl-N-(8-{5-[(methylsulfonyl)amino]pyridin-2-yl}-8-azabicyclo[3.2.1]oct-3-endo-yl)propanamide] here?
**A.** Its IC50 is under 0.2 µM.

**Q.** For CC(C)(Oc1ccc(Cl)cc1Cl)C(=O)N[C@H]1C[C@H]2CC[C@@H](C1)N2c1ccc(C(=O)NCC(=O)C(F)(F)F)cn1 [Example 476, 6-(3-endo-{[2-(2,4-dichlorophenoxy)-2-methylpropanoyl]amino}-8-azabicyclo[3.2.1]oct-8-yl)-N-(3,3,3-trifluoro-2-oxopropyl)pyridine-3-carboxamide], which IC50 is on record?
**A.** Its IC50 is under 0.2 µM.

**Q.** With CC(C)NC(=O)c1ccc(N2[C@@H]3CC[C@H]2C[C@@H](NC(=O)C(C)(C)Oc2ccc(F)cc2Cl)C3)nc1 [Example 70, 6-[3-endo-({2-[(2-chloro-4-fluorophenyl)oxy]-2-methylpropanoyl}amino)-8-azabicyclo[3.2.1]oct-8-yl]-N-(1-methylethyl)pyridine-3-carboxamide] as the molecule, how does the IC50 read?
**A.** Its IC50 is under 0.2 µM.

**Q.** For CC(C)(Oc1ccc(Cl)cc1Cl)C(=O)N[C@H]1C[C@H]2CC[C@@H](C1)N2c1ccc(-c2nnn[nH]2)cn1 [Example 114, 2-[(2,4-dichlorophenyl)oxy]-2-methyl-N-{8-[5-(1H-tetrazol-5-yl)pyridin-2-yl]-8-azabicyclo[3.2.1]oct-3-endo-yl}propanamide], which IC50 is on record?
**A.** The IC50 was under 0.2 µM.

**Q.** For CC(C)(C(=O)N[C@H]1C[C@H]2CC[C@@H](C1)N2c1ccc(C(N)=O)cn1)c1ccc(F)c(F)c1 [Example 165, 6-(3-endo-{[2-(3,4-difluorophenyl)-2-methylpropanoyl]amino}-8-azabicyclo[3.2.1]oct-8-yl)pyridine-3-carboxamide], which IC50 is on record?
**A.** The IC50 was under 0.2 µM.

**Q.** CC(C)(Oc1ccc(Cl)cc1Cl)C(=O)N[C@H]1C[C@H]2CC[C@@H](C1)N2c1ccc(S(C)(=O)=O)nc1 [Example 307, 2-[(2,4-dichlorophenyl)oxy]-2-methyl-N-{8-[6-(methylsulfonyl)pyridin-3-yl]-8-azabicyclo[3.2.1]oct-3-endo-yl}propanamide] was tested. Which IC50 did it give?
**A.** Its IC50 is under 0.2 µM.

**Q.** With CC(C)(Oc1ccc(F)cc1Cl)C(=O)N[C@H]1C[C@H]2CC[C@@H](C1)N2c1ccc(C(N)=O)cn1 [Example 74, 6-[3-endo-({2-[(2-chloro-4-fluorophenyl)oxy]-2-methylpropanoyl}amino)-8-azabicyclo[3.2.1]oct-8-yl]pyridine-3-carboxamide] as the molecule, how does the IC50 read?
**A.** Its IC50 is under 0.2 µM.

**Q.** For CC(C)(Oc1ncc(Cl)cc1F)C(=O)N[C@H]1C[C@H]2CC[C@@H](C1)N2c1ccc(C(N)=O)cn1 [Example 142, 6-[3-endo-({2-[(5-chloro-3-fluoropyridin-2-yl)oxy]-2-methylpropanoyl}amino)-8-azabicyclo[3.2.1]oct-8-yl]pyridine-3-carboxamide], which IC50 is on record?
**A.** The IC50 was under 0.2 µM.

**Q.** For CC(C)(Oc1ccc(Cl)cc1Cl)C(=O)N[C@H]1C[C@H]2CC[C@@H](C1)N2c1ccc(NC(=O)C(F)(F)F)cc1 [Example 116, 2-[(2,4-dichlorophenyl)oxy]-2-methyl-N-(8-{4-[(trifluoroacetyl)amino]phenyl}-8-azabicyclo[3.2.1]oct-3-endo-yl)propanamide], which IC50 is on record?
**A.** Its IC50 is under 0.2 µM.

**Q.** CN1CCN(CCOc2cc(OC(C)(C)C(=O)N[C@H]3C[C@H]4CC[C@@H](C3)N4c3ccc(C(=O)NCC(F)(F)F)cn3)c(Cl)cc2Cl)CC1 [Example 406, 6-(3-endo-(2-(2,4-dichloro-5-(2-(4-methylpiperazin-1-yl)ethoxy)phenoxy)-2-methylpropanamido)-8-azabicyclo[3.2.1]octan-8-yl)-N-(2,2,2-trifluoroethyl)nicotinamide] was tested. Which IC50 did it give?
**A.** Its IC50 is under 0.2 µM.

**Q.** How did the IC50 turn out when CC(C)(Oc1ccc(F)cc1C(F)(F)F)C(=O)N[C@H]1C[C@H]2CC[C@@H](C1)N2c1ccc(S(N)(=O)=O)cn1 [Example 177, N-{8-[5-(aminosulfonyl)pyridin-2-yl]-8-azabicyclo[3.2.1]oct-3-endo-yl}-2-{[4-fluoro-2-(trifluoromethyl)phenyl]oxy}-2-methylpropanamide] was run?
**A.** Its IC50 is under 0.2 µM.

**Q.** With CC(C)(Oc1ccc(Cl)cc1C(F)(F)F)C(=O)N[C@H]1C[C@H]2CC[C@@H](C1)N2c1ccc(S(N)(=O)=O)cn1 [Example 211, N-{8-[5-(aminosulfonyl)pyridin-2-yl]-8-azabicyclo[3.2.1]oct-3-endo-yl}-2-{[4-chloro-2-(trifluoromethyl)phenyl]oxy}-2-methylpropanamide] as the molecule, how does the IC50 read?
**A.** The IC50 was under 0.2 µM.

**Q.** Which IC50 does the source give for CC(C)(Oc1cc(C(F)(F)F)ccc1F)C(=O)N[C@H]1C[C@H]2CC[C@@H](C1)N2c1ccc(S(C)(=O)=O)cn1 [Example 335, 2-{[2-fluoro-5-(trifluoromethyl)phenyl]oxy}-2-methyl-N-{8-[5-(methylsulfonyl)pyridin-2-yl]-8-azabicyclo[3.2.1]oct-3-endo-yl}propanamide] here?
**A.** The IC50 was under 2 µM.

**Q.** Which IC50 does the source give for CC(C)(Oc1cccc2cc[nH]c12)C(=O)N[C@H]1C[C@H]2CC[C@@H](C1)N2c1ccc(C(=O)NCC(F)(F)F)cn1 [Example 390, 6-(3-endo-{[2-(1H-indol-7-yloxy)-2-methylpropanoyl]amino}-8-azabicyclo[3.2.1]oct-8-yl)-N-(2,2,2-trifluoroethyl)pyridine-3-carboxamide] here?
**A.** The IC50 was under 0.2 µM.

**Q.** For CC(C)(Oc1ccc(C(F)(F)F)cn1)C(=O)N[C@H]1C[C@H]2CC[C@@H](C1)N2c1ccc(S(C)(=O)=O)cc1 [Example 196, 2-methyl-N-{8-[4-(methylsulfonyl)phenyl]-8-azabicyclo[3.2.1]oct-3-endo-yl}-2-{[5-(trifluoromethyl)pyridin-2-yl]oxy}propanamide], which IC50 is on record?
**A.** Its IC50 is under 2 µM.

**Q.** With COCCNC(=O)c1ccc(N2[C@@H]3CC[C@H]2C[C@@H](NC(=O)C(C)(C)Oc2ccc(Cl)cc2Cl)C3)nc1 [Example 80, 6-[3-endo-({2-[(2,4-dichlorophenyl)oxy]-2-methylpropanoyl}amino)-8-azabicyclo[3.2.1]oct-8-yl]-N-[2-(methyloxy)ethyl]pyridine-3-carboxamide] as the molecule, how does the IC50 read?
**A.** The IC50 was under 0.2 µM.

**Q.** CC(C)(Oc1ccccc1)C(=O)N[C@H]1C[C@H]2CC[C@@H](C1)N2c1ccc(C(=O)NC2CC2)cn1 [Example 15, N-cyclopropyl-6-(3-endo-{[2-methyl-2-(phenyloxy)propanoyl]amino}-8-azabicyclo[3.2.1]oct-8-yl)pyridine-3-carboxamide] was tested. Which IC50 did it give?
**A.** Its IC50 is under 0.2 µM.

**Q.** For CC(C)(Oc1cc(OC(C)(C)C(=O)N[C@H]2C[C@H]3CC[C@@H](C2)N3c2ccc(C(=O)NCC(F)(F)F)cn2)c(Cl)cc1Cl)C(=O)O [Example 414, 2-(2,4-dichloro-5-(2-methyl-1-oxo-1-(8-(5-(2,2,2-trifluoroethylcarbamoyl)pyridin-2-yl)-8-azabicyclo[3.2.1]octan-3-endo-ylamino)propan-2-yloxy)phenoxy)-2-methylpropanoic acid], which IC50 is on record?
**A.** The IC50 was under 2 µM.

**Q.** With CC(C)(Oc1ccc(F)cc1C(F)(F)F)C(=O)N[C@H]1C[C@H]2CC[C@@H](C1)N2c1ccc(C(=O)NCC(F)(F)F)cn1 [Example 145, 6-{3-endo-[(2-{[4-fluoro-2-(trifluoromethyl)phenyl]oxy}-2-methylpropanoyl)amino]-8-azabicyclo[3.2.1]oct-8-yl}-N-(2,2,2-trifluoroethyl)pyridine-3-carboxamide] as the molecule, how does the IC50 read?
**A.** The IC50 was under 0.2 µM.

**Q.** With NC(=O)c1ccc(N2[C@@H]3CC[C@H]2C[C@@H](NC(=O)C2(c4ccc(Cl)c(Cl)c4)CC2)C3)nc1 [Example 103, 6-[3-endo-({[1-(3,4-dichiorophenyl)cyclopropyl]carbonyl}amino)-8-azabicyclo[3.2.1]oct-8-yl]pyridine-3-carboxamide] as the molecule, how does the IC50 read?
**A.** Its IC50 is under 0.2 µM.

**Q.** For CC(C)(Oc1ncc(Cl)cc1C(F)(F)F)C(=O)N[C@H]1C[C@H]2CC[C@@H](C1)N2c1ccc(S(C)(=O)=O)cn1 [Example 314, 2-{[5-chloro-3-(trifluoromethyl)pyridin-2-yl]oxy}-2-methyl-N-{8-[5-(methylsulfonyl)pyridin-2-yl]-8-azabicyclo[3.2.1]oct-3-endo-yl}propanamide], which IC50 is on record?
**A.** Its IC50 is under 0.2 µM.
